Results as given in patent US20020168365A1, “Method for modulating granzyme B uptake and for identifying modulators thereof” (priority 2000, published 2002).
Blank lines part the entries; values can stand above or below the molecule they belong to.

Experiments:
Jurkat cells [1] = assay: TUNEL and annexin V apoptosis assays with grB and AD; format: cell-based, human; settings: for TUNEL positive cells: 3 hr with pretreated grB and AD; for percentage of TUNEL positive cells after incubation with grB and AD / percentage of annexin V positive cells after incubation with grB and AD: with 25 mM monosaccharide
Description: (§1) GrB was treated for 1 hr at 37° C. in a phosphate-free (saline) or a high-phosphate (64.5 mM Na2HPO4.7H2O, 21 mM KH2PO4) buffer with calf intestinal alkaline phosphatase (1-10 U), 20 nM of the 37 kDa catalytic subunit of recombinant protein phosphatase-1 (Bagu et al, 1997), or with vehicle control. Cells were then incubated with the treated grB at 4° C. for 30-60 min. For the TUNEL or annexin V assays, cells were then washed twice before incubation at 37° C. with AD.
(§2) M6P and various other monosaccharides at different concentrations were added to cells for 15 min at 4° C. before the addition of labeled grB, or at room temperature before the addition of grB and AD.
(§3) GrB was incubated with sCI-MPR at various concentrations in PBS/0.1% BSA for 30 min at 4° C. Subsequently, cells were incubated with grB/sCI-MPR for 30-60 min at 4° C. and washed twice, before analysis of binding, or before the addition of AD for TUNEL and annexin V analysis.
For the in vitro killing assays, 10 pfu per cell of replication-deficient adenovirus (AD) were added subsequent to grB addition. Analysis of DNA fragmentation by TUNEL analysis has been described previously (Heibein et al., 1999). TUNEL materials (Roche Diagnostics) were used as per the manufacturer's instructions. Phosphatidylserine externalization was measured as previously described (Heibein et al., 1999) using annexin V-FITC (PharMingen). Percent specific TUNEL/annexin V positive cells was calculated as: [(% positive labeling cells with grB and AD-% positive labeling cells without grB and AD)/(100-% positive labeling cells without grB and AD)]×100.
Cells were resuspended at 10^6 cells/ml in 0.1% BSA/DMEM. Adenovirus (10 PFU/cell) and granzyme B (grB) were added directly to the cell suspension. Cells were incubated at 37° C. for 3 h. For staurosporine killing, cells were resuspended at 10^6 cells/ml in their normal growth medium and staurosporine (2.5 μM) was added directly to the cell suspension. Cells were incubated at 37° C. for 2, 4 and 8 h.
(§4) DNA fragmentation was monitored by flow cytometric analysis via the terminal deoxynucleotidyltransferase-mediated dUTP-biotin nick end labeling (TUNEL) method. Flow cytometric analysis was performed on a Becton Dickinson FACScanθ flow cytometer equipped with an argon-ion laser with 15 mW of excitation at 488 nm. Emission wavelengths were detected through the FL1 channel. Data were acquired on 10,000 cells per sample with light scatter signals at linear gain and fluorescence signals at logarithmic gain. Percent specific TUNEL positive cells was calculated as follows: [(% positive labeling cells with grB and AD−% positive labeling cells without grB and AD)/(AD−% positive labeling cells without grB and AD)]×100.
as §4, with “Phosphatidylserine externalization” for “DNA fragmentation”, “monitored using the ApoAlertθ annexin V apoptosis kit (Clontech) according to the protocol provided” for “monitored”, “by” for “by flow cytometric analysis via”, “manufacturer.” for “terminal deoxynucleotidyltransferase-mediated dUTP-biotin nick end labeling (TUNEL) method.”, “Annexin V” for “TUNEL”

Jurkat cells [2] = assay: GrB binding assay (flow cytometry, labeled grB at 4° C.); set-up: species or system human; settings: for effect on grB binding: monosaccharide with labeled grB, 4° C. (FIG. 3A)
Description: Cells (1-2×10^5) were washed twice and resuspended in buffer before the addition of grB-biotin or -OG in a final volume of 20 μl for a 30-60 min incubation and washed again twice. In the case of grB-biotin, cells were then incubated with streptavidin-cychrome for 20 min and washed twice. Unless otherwise indicated, ˜25 ng grB-biotin or -OG was used to label cells. All steps of the assay were carried out at 4° C. to prevent intracellular uptake of grB. PBS/0.1% BSA buffer was used throughout the procedure. In some cases, results are presented as the relative MFI, which represents the MFI of the grB-labeled population minus the MFI of the unlabeled population.
as §1, §2, §3

[3] = target: cell surface MPR on Jurkat cells; assay: cell-based or functional assay
[4] = system: AD containing a β-galactosidase insert; assay: Infection of AD containing a β-galactosidase insert; format: cell-based
CI-MPR^+ cells = assay: GrB uptake assay (confocal microscopy, grB-OG at 37° C.); format: cell-based, murine L cells transfected with human CI-MPR; settings: 20 mM M6P
Description: Cells on coverslips were incubated for 20 min at 37° C. with DMEM/0.1% BSA containing 25 ng grB-OG that was untreated, mock-treated, or alkaline phosphatase-treated as described above. For the M6P inhibition studies, cells were treated with 20 mM M6P in DMEM/0.1% BSA for 10 min at 37° C., before the addition of grB-OG, as above. Cells were then washed twice with PBS/0.1% BSA, fixed with 2% paraformaldehyde in PBS, and allowed to dry briefly before the coverslips were mounted and examined by confocal microscopy. Imaging was performed with a Zeiss Axiovertθ 100M LSM510 laser scan microscope and analyzed using LSM510 software.

MPRs in all cell lines = assay: GrB-OG binding after M6P preincubation (Example 2, FIG. 8); settings: 20 mM M6P, 37° C., 15 minutes prior to grB-OG
Description: Cells (1×10^5) were washed twice and resuspended in buffer before addition of grB-biotin or grB-OG in a final volume of 20 μl for a 30-60 min incubation and washed again twice. In the case of grB-biotin, cells were then incubated with streptavidin-cychrome for 20 min and washed twice. In order to measure cell surface binding, all steps of the binding assay were carried out at 4° C. to prevent intracellular uptake of grB. 0.1% BSA/PBS buffer was used throughout the procedure. All steps of the grB uptake assay were carried out at 37° C. Flow cytometric analysis was performed on a Becton Dickinson FACScanθ flow cytometer equipped with an argon-ion laser with 15 mW of excitation at 488 nm. Emission wavelengths were detected through the FL1 and FL3 channel for grB-OG and grB-biotin, respectively. Data were acquired on 10,000 cells per sample with light scatter signals at linear gain and fluorescence signals at logarithmic gain. Results are presented as the relative MFI, which represents the MFI of the grB-labeled population minus the MFI of the unlabeled population. M6P at 20 mM was added to cells for 15 min at 37° C. before the addition of labeled grB.

[5] = system: MPR^− and CI-MPR^+ target cells; assay: CTL killing assays (^3H-thymidine release and ^51Cr-release); format: cell-based, murine; settings: Mus musculus; CTL effectors with targets in the presence of M6P (data not shown); read-out: half-maximal inhibition of target cell DNA fragmentation
Description: The ^51Cr- (lysis) and ^3H-thymidine (DNA fragmentation) release assays have been previously described (Darmon et al., 1996). Target cells (1×10^4 cells/well for the ^51Cr-release assay and 5×10^4 cells/well for the ^3H-thymidine-release assay) were incubated with CTL at various E:T ratios (effector:target) in the presence or absence of blocking murine- (1 μg/ml) or human- (200 ng/ml) anti-Fas mAb. Data from one experiment represent the mean of data from triplicate samples. Typically, spontaneous ^51Cr-release and DNA fragmentation was less than 10% and 5%, respectively. Percent specific lysis and DNA fragmentation was calculated as: [(sample cpm−spontaneous cpm)/(total cpm−spontaneous cpm)]×100.

[6] = preincubation of grB with soluble CI-MPR, Jurkat cells (data not shown)

Molecule: grB pretreated with alkaline phosphatase in phosphate-containing buffer: control grB treated with phosphatase in a phosphate-containing buffer to inhibit phosphatase activity
TUNEL positive cells (Jurkat cells [1]; Jurkat cells): 50%

Molecule: O=C[C@H](O)[C@@H](O)[C@H](O)[C@H](O)CO [D-glucose, reference compound]
effect on grB binding (Jurkat cells [2]): no effect
percentage of TUNEL positive cells after incubation with grB and AD (Jurkat cells [1]; 3 hr, Jurkat cells): 66%
percentage of annexin V positive cells after incubation with grB and AD (Jurkat cells [1]; 3 hr, Jurkat cells): 40%

Molecule: O=C[C@H](O)[C@@H](O)[C@H](O)[C@H](O)COP(=O)(O)O [D-glucose 6-phosphate, reference compound]
concentrations at which inhibitory effect on grB binding was evident (Jurkat cells [2]; labeled grB, 4° C.): above 25 mM
effect on grB binding (Jurkat cells [2]): slight inhibitory effect
percentage of TUNEL positive cells after incubation with grB and AD (Jurkat cells [1]; 3 hr, Jurkat cells): 60%
percentage of annexin V positive cells after incubation with grB and AD (Jurkat cells [1]; 3 hr, Jurkat cells): 41%

TUNEL positive Jurkat cells after 3 hr with grB (pretreated with alkaline phosphatase in phosphate-containing buffer) and AD [3]: 50%
Molecule: human granzyme B purified from the cytolytic granules of YT-Indy cells (from UniProt P10144 21-247) (enzyme)

Molecule: dephosphorylated grB: grB treated with calf intestinal alkaline phosphatase in phosphate-free buffer
TUNEL positive cells (Jurkat cells [1]; Jurkat cells): Less than 5%

TUNEL positive Jurkat cells after 3 hr with phosphatase-treated grB and AD [3]: < 5%
Molecule: dephosphorylated human granzyme B (treated with calf intestinal alkaline phosphatase in phosphate-free buffer) (from UniProt P10144 21-247) (enzyme)

Molecule: soluble CI-MPR: Human soluble cation-independent mannose 6-phosphate receptor (Valenzano et al., 1995)
concentration that markedly reduced in a dose-dependent manner the cell surface binding of grB (Jurkat cells [2]; [6]): ≥ 100 µg/mL
concentration that markedly reduced in a dose-dependent manner grB/AD-mediated apoptosis (Jurkat cells [1]; [6]): ≥ 100 µg/mL

Molecule: O=C[C@@H](O)[C@@H](O)[C@H](O)[C@H](O)CO [D-mannose, reference compound]
effect on grB binding (Jurkat cells [2]): no effect
percentage of TUNEL positive cells after incubation with grB and AD (Jurkat cells [1]; 3 hr, Jurkat cells): 52%
percentage of annexin V positive cells after incubation with grB and AD (Jurkat cells [1]; 3 hr, Jurkat cells): 32%

Molecule: O=C[C@@H](O)[C@@H](O)[C@H](O)[C@H](O)COP(=O)(O)O [M6P, mannose 6-phosphate]
effect on infection of AD containing a β-galactosidase insert [4]: No effect
uptake of grB (grB detected within the cells) (CI-MPR^+ cells): essentially no grB could be detected within the cells
binding of grB to the MPRs (MPRs in all cell lines): significantly reduced binding
binding of grB to Jurkat cells (Jurkat cells [2]; M6P at 20 mM, 4° C.): considerably reduced binding
IC50 (Jurkat cells [2]; labeled grB, 4° C., flow cytometry, Jurkat cells (FIG. 3A), read-out: half-maximal inhibition of binding of grB): 1 mM
IC50 [5]: > 25 mM
concentration that markedly reduced in a dose-dependent manner the percentage of TUNEL or annexin V positive cells (Jurkat cells [1]; Jurkat cells, grB and AD, 3 hr): ≥ 200 µM
